Laboratory results as given in patent US20170295783A1, “COMPOSITIONS AND METHODS TO SELECTIVELY CONTROL SPECIES” (STEPHEN F. AUSTIN STATE UNIVERSITY, priority 2014, published 2017).

Columns and labels:
[1] = tested on: Giant Salvinia; experiment: Leaf-blade droplet bioassay on giant salvinia; type: in vivo, Salvinia molesta; conditions: for Activity against Giant Salvinia: 8 μL of 1% solution on lower leaf surface
Description: The three plants in the first container served as control without any treatment, three plants in the second container were treated with 1% DMSO, three plants in the third container were treated with 5% DMSO, three plants in the fourth container were treated with 0.5% Dyne-Amic®, and the plants in each of the other four containers were treated with each of the four testing isolates, respectively. For each of the three plant in the 0.5% Dyne-Amic® treatment, 8 μL of 0.5% Dyne-Amic® was applied on the lower surface of each of the two mature leaf blades close to the terminal bud by pipet and 8 μL of 0.5% Dyne-Amic® was applied on the upper surface (with trichomes) of each of the two other mature leaf blades close to the terminal bud by pipet. For all three plants in each of the DMSO or testing isolates treatment containers, 8 μL of each experimental solution was applied on the lower surface of each of the two mature leaf blades close to the terminal bud by pipet.

[2] = tested on: human tumor cells or normal cells; conditions: Li, et al., 2013; cited from earlier work
[3] = tested on: A. palmeri; experiment: Leaf droplet bioassay on A. palmeri seedlings; type: in vivo, Amaranthus palmeri; conditions: 10 μL 0.5% glyphosate
Description: Bioassays: The experimental plants were 3-week-old A. palmeri seedlings germinated from the seeds collected from the above described glyphosate-resistant plants. The seedlings were grown in pots with Miracle Grow Potting Mix soil in the greenhouse (30° C. during the day time and 20° C. at night). The intact seedling plants of 3-week old Q. texana and 2-month-old L. styraciflua grown in pots in greenhouse were also tested in this experiment. […] The leaf surfaces of the experimental plants were checked daily for two weeks by a ×60 portable microscope linked to an iPhone™.

[4] = tested on: T. sebifera seedlings; experiment: Droplet test and foliar spray of fractions on Chinese tallow seedlings; set-up: species or system Triadica sebifera; conditions: in vivo
Excerpt: The leaf surfaces of the experimental plants were checked daily for two weeks by a ×60 portable microscope linked to an iPhone™.

SMILES: CC(=O)/C=C/[C@H]1C(C)=C[C@H](O)CC1(C)C [compound 2, (3R,6R,7E)-3-hydroxy-4,7-megastigmadien-9-one]
- Activity against Giant Salvinia [1]: Weak activity
- leaf injury during the two weeks of observation ([1]; 8 μL/leaf, 1% solution): no or slight injury

SMILES: CC(=O)/C=C/C1=C(C)C[C@@H](O)CC1(C)C [compound 1, (+)-3-Hydroxy-β-ionone]
- cytotoxicity against human tumor cells or normal cells [2]: did not show any cytotoxicity
- Activity against Giant Salvinia [1]: Potent activity
- leaves dead by the end of experiment (of six) ([1]; 8 μL/leaf, 1% solution): two leaves were dead
- time to significant injury of the six treated leaf blades ([1]; 8 μL/leaf, 1% solution, lower surface): ≤ 12 h
- time to death of lower surface contact tissues (FIG. 1) ([1]; applied on the lower surface of the leaf blade): ≤ 12 h

SMILES: CC(=O)/C=C/[C@@]1(O)C(C)=CC(=O)CC1(C)C [compound 4, Dehydrovomifoliol]
- cytotoxicity against human tumor cells or normal cells [2]: did not show any cytotoxicity
- Activity against Giant Salvinia [1]: No activity
- leaf injury during the two weeks of observation ([1]; 8 μL/leaf, 1% solution): no or slight injury

SMILES: O=C(O)CNCP(=O)(O)O [glyphosate]
- leaf injury [3]: no injury

SMILES: CC(=O)/C=C/[C@H]1C(C)=C[C@H](O)CC1(C)C
- cytotoxicity against human tumor cells or normal cells [2]: did not show any cytotoxicity

SMILES: CC(=O)/C=C/[C@@]12O[C@]1(C)C[C@@H](O)CC2(C)C [compound 3, Annuionone D]
- cytotoxicity against human tumor cells or normal cells [2]: did not show any cytotoxicity
- Activity against Giant Salvinia [1]: No activity
- leaf injury during the two weeks of observation ([1]; 8 μL/leaf, 1% solution): no or slight injury

SMILES: COc1c(OC)c(OC)c2oc(=O)ccc2c1OC [5,6,7,8-Tetramethoxycoumarin, 5,6,7,8-tetramethoxycoumarin]
- endocidal activity in the droplet test [4]: showed endocidal activity
